From PubChem BioAssay AID248 (DTP/NCI, 2004)
Where “and” joins values, the source holds several entries; their conditions need not be identical. Equal values may be shown once. Inconclusive results and toxic doses are left out. No stated cut-off is given here; in the data, active means T/C of 150% or more; inactive means T/C below 125%.

System: L1210 leukemia ip in BDF1 mice, survival T/C
Assay: NCI In Vivo Anticancer Drug Screen. Data for tumor model L1210 Leukemia (intraperitoneal) in B6D2F1 (BDF1) mice
Conditions: higher = longer survival
How it was run: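 Ratio derived from survival: compound-dosed mice over vehicle-dosed mice, all bearing a transplantable tumor.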

Measured: T/C

N=C(N)SCc1c2ccccc2c(CSC(=N)N)c2ccccc12
inactive: endpoint: mean survival time, dose: 0.1 mg/kg/injection, schedule: Q07DX002 (ip), vehicle: saline 97 % of control | endpoint: mean survival time, dose: 0.11 mg/kg/injection, schedule: Q01DX Z (ip), vehicle: saline 110 % of control | endpoint: mean survival time, dose: 0.2 mg/kg/injection, schedule: Q01DX Z (ip), vehicle: carboxymethylcellulose (CMC) 113 % of control | endpoint: mean survival time, dose: 0.2 mg/kg/injection, schedule: Q07DX002 (ip), vehicle: saline 103 % of control | endpoint: mean survival time, dose: 0.3 mg/kg/injection, schedule: Q01DX Z (ip), vehicle: carboxymethylcellulose (CMC) 110 % of control | endpoint: mean survival time, dose: 0.3 mg/kg/injection, schedule: Q03HX008 (ip), vehicle: other 113 % of control | endpoint: mean survival time, dose: 0.37 mg/kg/injection, schedule: Q01DX Z (ip), vehicle: carboxymethylcellulose (CMC) 103 % of control | endpoint: mean survival time, dose: 0.39 mg/kg/injection, schedule: Q07DX002 (ip), vehicle: saline 92 % of control | endpoint: mean survival time, dose: 0.62 mg/kg/injection, schedule: Q#A X Z (ip), vehicle: carboxymethylcellulose (CMC) 111 % of control | endpoint: mean survival time, dose: 0.63 mg/kg/injection, schedule: Q01DX Z (im), vehicle: carboxymethylcellulose (CMC) 112 % of control | endpoint: mean survival time, dose: 0.63 mg/kg/injection, schedule: Q01DX Z (sc), vehicle: carboxymethylcellulose (CMC) 106 % of control | endpoint: mean survival time, dose: 0.75 mg/kg/injection, schedule: Q01DX Z (im), vehicle: carboxymethylcellulose (CMC) 106 % of control | endpoint: mean survival time, dose: 0.78 mg/kg/injection, schedule: Q07DX002 (ip), vehicle: saline 110 % of control | endpoint: mean survival time, dose: 1.25 mg/kg/injection, schedule: Q01DX009 (sc), vehicle: carboxymethylcellulose (CMC) 92 % of control | endpoint: mean survival time, dose: 1.25 mg/kg/injection, schedule: Q01DX Z (sc), vehicle: carboxymethylcellulose (CMC) 103 % of control and 112 % of control | endpoint: mean survival time, dose: 1.5 mg/kg/injection, schedule: Q01DX Z (ip), vehicle: saline 112 % of control | endpoint: mean survival time, dose: 2.5 mg/kg/injection, schedule: Q01DX009 (sc), vehicle: carboxymethylcellulose (CMC) 92 % of control | endpoint: mean survival time, dose: 2.5 mg/kg/injection, schedule: Q01DX Z (sc), vehicle: carboxymethylcellulose (CMC) 106 % of control and 113 % of control | endpoint: mean survival time, dose: 3.12 mg/kg/injection, schedule: Q01DX Z (im), vehicle: carboxymethylcellulose (CMC) 112 % of control | endpoint: mean survival time, dose: 3.12 mg/kg/injection, schedule: Q01DX Z (ip), vehicle: carboxymethylcellulose (CMC) 112 % of control | endpoint: mean survival time, dose: 5.0 mg/kg/injection, schedule: Q01DX006 (iv), vehicle: carboxymethylcellulose (CMC) 108 % of control | endpoint: mean survival time, dose: 5.0 mg/kg/injection, schedule: Q01DX009 (sc), vehicle: carboxymethylcellulose (CMC) 92 % of control | endpoint: mean survival time, dose: 5.0 mg/kg/injection, schedule: Q01DX Z (im), vehicle: carboxymethylcellulose (CMC) 113 % of control | endpoint: mean survival time, dose: 10.0 mg/kg/injection, schedule: Q01DX006 (iv), vehicle: carboxymethylcellulose (CMC) 96 % of control and 111 % of control | endpoint: mean survival time, dose: 10.0 mg/kg/injection, schedule: Q01DX009 (sc), vehicle: carboxymethylcellulose (CMC) 98 % of control | endpoint: mean survival time, dose: 10.0 mg/kg/injection, schedule: Q01DX Z (oral), vehicle: carboxymethylcellulose (CMC) 108 % of control | endpoint: mean survival time, dose: 10.0 mg/kg/injection, schedule: Q01DX Z (sc), vehicle: carboxymethylcellulose (CMC) 108 % of control | endpoint: mean survival time, dose: 12.5 mg/kg/injection, schedule: Q01DX Z (im), vehicle: carboxymethylcellulose (CMC) 110 % of control | endpoint: mean survival time, dose: 12.5 mg/kg/injection, schedule: Q03HX008 (ip), vehicle: carboxymethylcellulose (CMC) 107 % of control | endpoint: mean survival time, dose: 17.0 mg/kg/injection, schedule: Q01DX001 (ip), vehicle: carboxymethylcellulose (CMC) 111 % of control | endpoint: mean survival time, dose: 20.0 mg/kg/injection, schedule: Q01DX001 (sc), vehicle: carboxymethylcellulose (CMC) 98 % of control | endpoint: mean survival time, dose: 20.0 mg/kg/injection, schedule: Q01DX006 (iv), vehicle: carboxymethylcellulose (CMC) 112 % of control | endpoint: mean survival time, dose: 20.0 mg/kg/injection, schedule: Q01DX009 (sc), vehicle: carboxymethylcellulose (CMC) 95 % of control and 100 % of control | endpoint: mean survival time, dose: 20.0 mg/kg/injection, schedule: Q01DX Z (im), vehicle: carboxymethylcellulose (CMC) 106 % of control | endpoint: mean survival time, dose: 20.0 mg/kg/injection, schedule: Q01DX Z (oral), vehicle: carboxymethylcellulose (CMC) 111 % of control | endpoint: mean survival time, dose: 20.0 mg/kg/injection, schedule: Q01DX Z (sc), vehicle: carboxymethylcellulose (CMC) 106 % of control and 109 % of control | endpoint: mean survival time, dose: 25.0 mg/kg/injection, schedule: Q01DX017 (ip), vehicle: carboxymethylcellulose (CMC) 102 % of control | endpoint: mean survival time, dose: 25.0 mg/kg/injection, schedule: Q03HX040 (ip), vehicle: carboxymethylcellulose (CMC) 100 % of control | endpoint: mean survival time, dose: 30.0 mg/kg/injection, schedule: Q01DX009 (sc), vehicle: carboxymethylcellulose (CMC) 100 % of control | endpoint: mean survival time, dose: 32.0 mg/kg/injection, schedule: Q03HX024 (ip), vehicle: carboxymethylcellulose (CMC) 97 % of control | endpoint: mean survival time, dose: 32.0 mg/kg/injection, schedule: Q03HX024 (ip), vehicle: other 101 % of control | endpoint: mean survival time, dose: 40.0 mg/kg/injection, schedule: Q01DX001 (sc), vehicle: carboxymethylcellulose (CMC) 104 % of control | endpoint: mean survival time, dose: 41.0 mg/kg/injection, schedule: Q01DX Z (ip), vehicle: saline 105 % of control | endpoint: mean survival time, dose: 44.0 mg/kg/injection, schedule: Q01DX009 (sc), vehicle: carboxymethylcellulose (CMC) 101 % of control | endpoint: mean survival time, dose: 48.0 mg/kg/injection, schedule: Q01DX Z (ip), vehicle: carboxymethylcellulose (CMC) 101 % of control | endpoint: mean survival time, dose: 50.0 mg/kg/injection, schedule: Q03HX008 (ip), vehicle: carboxymethylcellulose (CMC) 113 % of control | endpoint: mean survival time, dose: 50.0 mg/kg/injection, schedule: Q03HX016 (ip), vehicle: carboxymethylcellulose (CMC) 94 % of control | endpoint: mean survival time, dose: 50.0 mg/kg/injection, schedule: Q03HX024 (ip), vehicle: carboxymethylcellulose (CMC) 102 % of control | endpoint: mean survival time, dose: 61.5 mg/kg/injection, schedule: Q01DX Z (ip), vehicle: saline 92 % of control | endpoint: mean survival time, dose: 66.0 mg/kg/injection, schedule: Q01DX009 (sc), vehicle: carboxymethylcellulose (CMC) 102 % of control | endpoint: mean survival time, dose: 80.0 mg/kg/injection, schedule: Q01DX001 (sc), vehicle: carboxymethylcellulose (CMC) 103 % of control | endpoint: mean survival time, dose: 80.0 mg/kg/injection, schedule: Q01DX Z (oral), vehicle: carboxymethylcellulose (CMC) 105 % of control and 106 % of control | endpoint: mean survival time, dose: 100.0 mg/kg/injection, schedule: Q01DX009 (ip), vehicle: saline 92 % of control | endpoint: mean survival time, dose: 100.0 mg/kg/injection, schedule: Q01DX009 (sc), vehicle: carboxymethylcellulose (CMC) 107 % of control | endpoint: mean survival time, dose: 100.0 mg/kg/injection, schedule: Q06HX004 (ip), vehicle: carboxymethylcellulose (CMC) 93 % of control | endpoint: mean survival time, dose: 100.0 mg/kg/injection, schedule: Q08DX003 (ip), vehicle: carboxymethylcellulose (CMC) 108 % of control | endpoint: mean survival time, dose: 160.0 mg/kg/injection, schedule: Q01DX001 (sc), vehicle: carboxymethylcellulose (CMC) 103 % of control | endpoint: mean survival time, dose: 200.0 mg/kg/injection, schedule: Q01DX009 (ip), vehicle: carboxymethylcellulose (CMC) 113 % of control | endpoint: mean survival time, dose: 200.0 mg/kg/injection, schedule: Q01DX017 (ip), vehicle: carboxymethylcellulose (CMC) 105 % of control | endpoint: mean survival time, dose: 200.0 mg/kg/injection, schedule: Q01DX Z (im), vehicle: carboxymethylcellulose (CMC) 112 % of control | endpoint: mean survival time, dose: 200.0 mg/kg/injection, schedule: Q08DX002 (ip), vehicle: carboxymethylcellulose (CMC) 113 % of control | endpoint: mean survival time, dose: 200.0 mg/kg/injection, schedule: Q08DX003 (ip), vehicle: carboxymethylcellulose (CMC) 104 % of control | endpoint: mean survival time, dose: 200.0 mg/kg/injection, schedule: Q#A X002 (ip), vehicle: saline 111 % of control | endpoint: mean survival time, dose: 266.0 mg/kg/injection, schedule: Q01DX001 (sc), vehicle: carboxymethylcellulose (CMC) 103 % of control | endpoint: mean survival time, dose: 300.0 mg/kg/injection, schedule: Q03DX Z (ip), vehicle: saline 113 % of control | endpoint: mean survival time, dose: 320.0 mg/kg/injection, schedule: Q01DX001 (sc), vehicle: carboxymethylcellulose (CMC) 103 % of control | endpoint: mean survival time, dose: 320.0 mg/kg/injection, schedule: Q01DX Z (oral), vehicle: carboxymethylcellulose (CMC) 112 % of control | endpoint: mean survival time, dose: 400.0 mg/kg/injection, schedule: Q01DX001 (oral), vehicle: carboxymethylcellulose (CMC) 106 % of control | endpoint: mean survival time, dose: 400.0 mg/kg/injection, schedule: Q01DX001 (sc), vehicle: carboxymethylcellulose (CMC) 102 % of control | endpoint: mean survival time, dose: 400.0 mg/kg/injection, schedule: Q04DX005 (ip), vehicle: carboxymethylcellulose (CMC) 97 % of control | endpoint: mean survival time, dose: 400.0 mg/kg/injection, schedule: Q07DX Z (ip), vehicle: saline 102 % of control | endpoint: mean survival time, dose: 400.0 mg/kg/injection, schedule: Q08DX002 (ip), vehicle: saline 97 % of control | endpoint: mean survival time, dose: 600.0 mg/kg/injection, schedule: Q01DX001 (sc), vehicle: carboxymethylcellulose (CMC) 98 % of control | endpoint: mean survival time, dose: 640.0 mg/kg/injection, schedule: Q01DX Z (oral), vehicle: carboxymethylcellulose (CMC) 112 % of control | endpoint: mean survival time, dose: 800.0 mg/kg/injection, schedule: Q01DX001 (oral), vehicle: carboxymethylcellulose (CMC) 105 % of control | endpoint: mean survival time, dose: 800.0 mg/kg/injection, schedule: Q08DX002 (ip), vehicle: carboxymethylcellulose (CMC) 109 % of control and 111 % of control | endpoint: mean survival time, dose: 800.0 mg/kg/injection, schedule: Q08DX003 (ip), vehicle: carboxymethylcellulose (CMC) 107 % of control | endpoint: mean survival time, dose: 900.0 mg/kg/injection, schedule: Q01DX001 (sc), vehicle: carboxymethylcellulose (CMC) 112 % of control | endpoint: mean survival time, dose: 1200.0 mg/kg/injection, schedule: Q01DX001 (oral), vehicle: carboxymethylcellulose (CMC) 97 % of control | endpoint: mean survival time, dose: 1280.0 mg/kg/injection, schedule: Q01DX Z (oral), vehicle: carboxymethylcellulose (CMC) 101 % of control | endpoint: mean survival time, dose: 1340.0 mg/kg/injection, schedule: Q01DX001 (oral), vehicle: carboxymethylcellulose (CMC) 107 % of control | endpoint: mean survival time, dose: 1600.0 mg/kg/injection, schedule: Q01DX001 (oral), vehicle: carboxymethylcellulose (CMC) 100 % of control | endpoint: mean survival time, dose: 2000.0 mg/kg/injection, schedule: Q01DX001 (oral), vehicle: carboxymethylcellulose (CMC) 112 % of control | endpoint: mean survival time, dose: 3000.0 mg/kg/injection, schedule: Q01DX001 (oral), vehicle: carboxymethylcellulose (CMC) 101 % of control | endpoint: median survival time, dose: 50.0 mg/kg/injection, schedule: Q04DX003 (ip), vehicle: steriod suspending solution 111 % of control | endpoint: median survival time, dose: 100.0 mg/kg/injection, schedule: Q01DX009 (ip), vehicle: steriod suspending solution 94 % of control | endpoint: median survival time, dose: 100.0 mg/kg/injection, schedule: Q04DX003 (ip), vehicle: steriod suspending solution 111 % of control | endpoint: median survival time, dose: 125.0 mg/kg/injection, schedule: Q01DX001 (sc), vehicle: steriod suspending solution 100 % of control | endpoint: median survival time, dose: 250.0 mg/kg/injection, schedule: Q01DX001 (sc), vehicle: steriod suspending solution 111 % of control | endpoint: median survival time, dose: 400.0 mg/kg/injection, schedule: Q04DX003 (sc), vehicle: steriod suspending solution 111 % of control | endpoint: median survival time, dose: 500.0 mg/kg/injection, schedule: Q01DX001 (sc), vehicle: steriod suspending solution 100 % of control | endpoint: median survival time, dose: 800.0 mg/kg/injection, schedule: Q04DX003 (sc), vehicle: steriod suspending solution 111 % of control | endpoint: median survival time, dose: 1000.0 mg/kg/injection, schedule: Q01DX001 (sc), vehicle: steriod suspending solution 105 % of control
